Laboratory results as given in ChEMBL document CHEMBL3885861, “Open TG-GATES”.

Organism: Rattus norvegicus
Experiment: Open TG-GATES - Regimen: Daily Repeat
Format: toxicity, organism-based, Sprague-Dawley
Set-up: regimen Daily Repeat, gender Male, age 6 weeks
Settings: in vivo, po, 250 mg/kg, […], route gavage, dose level Middle; for KIDNEY_L / KIDNEY_R / KIDNEY_TOTAL: tissue Kidney; for LIVER: tissue Liver; for A/G / ALP / ALT / AST / BUN / CRE / Ca / Cl / DBIL / GLC / IP / K / LDH / Na / PL / RALB / TBIL / TC / TG / TP / gamma-GTP: tissue Plasma

Q: What does the source list for CN(C/C=C/C#CC(C)(C)C)Cc1cccc2ccccc12 [TERBINAFINE]?
A: Lym (tissue Blood, time 28 day): 81%; MCH (tissue Blood, time 28 day): 20 pg; MCHC (tissue Blood, time 28 day): 35%; MCV (tissue Blood, time 28 day): 57.1 fL; Mono (tissue Blood, time 28 day): 2.2%; Neu (tissue Blood, time 28 day): 14.8%; PT (tissue Blood, time 28 day): 12.2 s; Plat (tissue Blood, time 28 day): 121.1 x10_4/uL; RBC (tissue Blood, time 28 day): 725.4 x10_4/ul; Ret (tissue Blood, time 28 day): 3.1%; WBC (tissue Blood, time 28 day): 136.2 x10_2/uL; KIDNEY_L (time 7 day): 1.3 g; KIDNEY_R (time 7 day): 1.2 g; KIDNEY_TOTAL (time 7 day): 2.5 g; KIDNEY_L (time 14 day): 1.4 g; KIDNEY_R (time 14 day): 1.4 g; KIDNEY_TOTAL (time 14 day): 2.8 g; KIDNEY_L (time 28 day): 1.7 g; KIDNEY_R (time 28 day): 1.7 g; KIDNEY_TOTAL (time 28 day): 3.4 g; LIVER (time 7 day): 13.7 g; LIVER (time 14 day): 16.3 g; LIVER (time 28 day): 20.2 g; A/G (time 7 day): 1.6; ALP (time 7 day): 738.6 IU/L; ALT (time 7 day): 37.6 IU/L; AST (time 7 day): 70.4 IU/L; BUN (time 7 day): 13.6 mg/dL; CRE (time 7 day): 0.4 mg/dL; Ca (time 7 day): 10.4 mg/dL; Cl (time 7 day): 103.6 meq/L; DBIL (time 7 day): 0.07 mg/dL; GLC (time 7 day): 192 mg/dL; IP (time 7 day): 7.4 mg/dL; K (time 7 day): 4 meq/L; LDH (time 7 day): 188.8 IU/L; Na (time 7 day): 142.6 meq/L; PL (time 7 day): 123.6 mg/dL; RALB (time 7 day): 3.6 g/dL; TBIL (time 7 day): 0.1 mg/dL; TC (time 7 day): 65.2 mg/dL; TG (time 7 day): 53.8 mg/dL; TP (time 7 day): 5.8 g/dL; gamma-GTP (time 7 day): 1 IU/L; A/G (time 14 day): 1.5; ALP (time 14 day): 690 IU/L; ALT (time 14 day): 34 IU/L; AST (time 14 day): 62.8 IU/L; BUN (time 14 day): 14.2 mg/dL; CRE (time 14 day): 0.4 mg/dL; Ca (time 14 day): 10.6 mg/dL; Cl (time 14 day): 103.6 meq/L; DBIL (time 14 day): 0.088 mg/dL; GLC (time 14 day): 196.4 mg/dL; IP (time 14 day): 8 mg/dL; K (time 14 day): 3.8 meq/L; LDH (time 14 day): 155.2 IU/L; Na (time 14 day): 142.2 meq/L; PL (time 14 day): 128 mg/dL; RALB (time 14 day): 3.6 g/dL; TBIL (time 14 day): 0.1 mg/dL; TC (time 14 day): 68 mg/dL; TG (time 14 day): 79.8 mg/dL; TP (time 14 day): 5.9 g/dL; gamma-GTP (time 14 day): 1 IU/L; A/G (time 28 day): 1.3; ALP (time 28 day): 565.8 IU/L; ALT (time 28 day): 34 IU/L; AST (time 28 day): 61.2 IU/L; BUN (time 28 day): 18.2 mg/dL; CRE (time 28 day): 0.5 mg/dL; Ca (time 28 day): 10.4 mg/dL; Cl (time 28 day): 103.6 meq/L; DBIL (time 28 day): 0.088 mg/dL; GLC (time 28 day): 229.6 mg/dL; IP (time 28 day): 7.1 mg/dL; K (time 28 day): 4 meq/L; LDH (time 28 day): 167.4 IU/L; Na (time 28 day): 141.4 meq/L; PL (time 28 day): 134 mg/dL; RALB (time 28 day): 3.5 g/dL; TBIL (time 28 day): 0.2 mg/dL; TC (time 28 day): 72 mg/dL; TG (time 28 day): 69.4 mg/dL; TP (time 28 day): 6.1 g/dL; gamma-GTP (time 28 day): 1.4 IU/L
